Assay results from patent US11890291B2, “Aqueous composition with water insoluble vitamins” (Innova Agri Bio Park Private Limited, priority 2018, dated 2024).

What was measured:
in vivo = conditions: Wistar, rat, po, 5 mg/kg
Experimental: Test substance (Vitamin D3 fortified aqueous composition) and standard drug cholecalciferol (Vitamin D3) was administered by oral route at the dose of 5 mg/kg body weight to Rats as shown in Table 8.
After oral administration of the test substance and the standard drug, 500 μL of blood sample was collected in EDTA containing tubes at different time intervals of 0, ½, 1, 2, 4, 8, 12, 24 and 48 hours.
The plasma was separated from blood samples for bioanalysis and pharmacokinetic profiling was performed using LC-MS/MS method for the quantification of vitamin D3 in Rat plasma.
The area under the plasma drug concentration-time curve (AUC) was calculated which reflects the actual body exposure to drug after administration of a dose of the drug.

[1] = Volume of distribution test; type: in vivo, Wistar rats; conditions: oral 5 mg/kg
Experimental: The volume of distribution (Vd) test was done to check the ability of Vitamin D3 nanogels/nanoparticles to distribute through different body fluid compartments. Apparent volume of distribution (Vd) was calculated by dividing the amount of the nanogel/nanoparticles and the standard drug administered on the plasma concentration as shown in Table 11.

Structure (SMILES): C=C1CC[C@H](O)C/C1=C/C=C1\CCC[C@]2(C)[C@@H]([C@H](C)CCCC(C)C)CC[C@@H]12 [Standard vitamin D3, cholecalciferol]
- AUC at 0 h (in vivo): 20 ng·h/mL
- AUC at 0.5 h (in vivo): 43.3 ng·h/mL
- AUC at 1 h (in vivo): 41.7 ng·h/mL
- AUC at 2 h (in vivo): 106 ng·h/mL
- AUC at 4 h (in vivo): 289 ng·h/mL
- AUC at 8 h (in vivo): 1180 ng·h/mL
- AUC at 12 h (in vivo): 3010 ng·h/mL
- AUC at 24 h (in vivo): 4060 ng·h/mL
- AUC at 48 h (in vivo): 2910 ng·h/mL
- AUC(0-t) (in vivo): 11700 ng·h/mL
- concentration at 0 h (in vivo): 1.66 ± 1.66 ng/mL
- concentration at 0.5 h (in vivo): 4.16 ± 2.17 ng/mL
- concentration at 1 h (in vivo): 3.7 ± 1.98 ng/mL
- concentration at 2 h (in vivo): 13.4 ± 4.87 ng/mL
- concentration at 4 h (in vivo): 68.8 ± 22.5 ng/mL
- concentration at 8 h (in vivo): 284 ± 82 ng/mL
- concentration at 12 h (in vivo): 767 ± 92.5 ng/mL
- concentration at 24 h (in vivo): 1040 ± 123 ng/mL
- concentration at 48 h (in vivo): 744 ± 33.6 ng/mL
- Volume of distribution (Vd) ([1]; 0 Hr): 333.3 ± 333.3 L/kg
- Volume of distribution (Vd) ([1]; 0.5 Hr): 548.8 ± 285.8 L/kg
- Volume of distribution (Vd) ([1]; 1 Hr): 632.7 ± 339.6 L/kg
- Volume of distribution (Vd) ([1]; 2 Hr): 465.9 ± 129.3 L/kg
- Volume of distribution (Vd) ([1]; 4 Hr): 96.22 ± 25.47 L/kg
- Volume of distribution (Vd) ([1]; 8 Hr): 20.25 ± 4.58 L/kg
- Volume of distribution (Vd) ([1]; 12 Hr): 6.73 ± 0.89 L/kg
- Volume of distribution (Vd) ([1]; 24 Hr): 4.98 ± 0.67 L/kg
- Volume of distribution (Vd) ([1]; 48 Hr): 6.74 ± 0.31 L/kg
